Results from ChEMBL document CHEMBL3396988, “Structure-based design of inhibitors of coagulation factor XIa with novel P1 moieties” (Bioorg Med Chem Lett, 2015).

Columns and labels:
Kallikrein-1 = Kallikrein-1 (Homo sapiens, UniProt P06870); test: Inhibition of tissue kallikrein (unknown origin)
[1] = Inhibition of chymotrypsin (unknown origin); set-up: species or system Homo sapiens
Plasminogen = Plasminogen (Homo sapiens, UniProt P00747); test: Inhibition of plasmin (unknown origin)
[2] = biological target: Tissue-type plasminogen activator (Homo sapiens, UniProt P00750); test: Inhibition of TPA (unknown origin)
Coagulation factor XI [3] = biological target: T1, Coagulation factor XI (Homo sapiens, UniProt P03951); test: Inhibition of human coagulation factor 11a at 25 degC
[4] = Permeability of the compound at pH 7.4 by PAMPA method; format: ADME; settings: read-out: permeability
[5] = Clearance in dog at 1 mg/kg, po or 0.4 mg/kg, iv administered in discrete format; format: ADME, organism-based, Canis lupus familiaris; settings: in vivo
[6] = Volume of distribution at steady state in dog at 1 mg/kg, po or 0.4 mg/kg, iv administered in discrete format; format: ADME, organism-based, Canis lupus familiaris; settings: in vivo, read-out: Vdss
[7] = Half life in dog at 1 mg/kg, po or 0.4 mg/kg, iv administered in discrete format; format: ADME, organism-based, Canis lupus familiaris; settings: in vivo
[8] = Oral bioavailability in dog at 1 mg/kg administered in discrete format; format: ADME, organism-based, Canis lupus familiaris; settings: in vivo
Trypsin = Trypsin (Homo sapiens, UniProt P07477+P07478+P35030); test: Inhibition of human trypsin at 25 degC; format: protein assay
[9] = Clearance in dog at 0.5 mg/kg, po or 0.4 mg/kg, iv administered in cassette format; format: ADME, organism-based, Canis lupus familiaris; settings: in vivo
[10] = Volume of distribution at steady state in dog at 0.5 mg/kg, po or 0.4 mg/kg, iv administered in cassette format; format: ADME, organism-based, Canis lupus familiaris; settings: in vivo, read-out: Vdss
[11] = Half life in dog at 0.5 mg/kg, po or 0.4 mg/kg, iv administered in cassette format; format: ADME, organism-based, Canis lupus familiaris; settings: in vivo
[12] = Oral bioavailability in dog at 0.5 mg/kg administered in cassette format; format: ADME, organism-based, Canis lupus familiaris; settings: in vivo
Plasma = test: Anticoagulant activity in human plasma assessed as compound level causing 1.5 times increase in activated partial […] time; format: functional
[13] = Half life in human liver microsomes; format: ADME
Coagulation factor VII = biological target: T2, Coagulation factor VII (Homo sapiens, UniProt P08709); test: Inhibition of coagulation factor 7a (unknown origin)
T2 sequence (P08709 whole entry): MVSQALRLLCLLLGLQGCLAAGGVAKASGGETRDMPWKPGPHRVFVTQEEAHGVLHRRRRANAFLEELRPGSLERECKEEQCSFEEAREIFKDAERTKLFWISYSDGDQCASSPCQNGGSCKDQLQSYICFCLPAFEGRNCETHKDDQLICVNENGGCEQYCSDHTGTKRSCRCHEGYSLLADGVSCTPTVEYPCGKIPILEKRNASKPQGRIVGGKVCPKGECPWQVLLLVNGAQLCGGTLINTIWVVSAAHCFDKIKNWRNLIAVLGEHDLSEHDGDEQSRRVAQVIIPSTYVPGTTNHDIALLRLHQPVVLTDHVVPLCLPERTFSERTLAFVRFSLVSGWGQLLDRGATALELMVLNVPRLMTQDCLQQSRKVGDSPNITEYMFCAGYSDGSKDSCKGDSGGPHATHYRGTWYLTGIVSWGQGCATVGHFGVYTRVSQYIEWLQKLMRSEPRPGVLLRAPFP

Coagulation factor IX = Coagulation factor IX (Homo sapiens, UniProt P00740); test: Inhibition of coagulation factor 9a (unknown origin)
Coagulation factor X = Coagulation factor X (Homo sapiens, UniProt P00742); test: Inhibition of coagulation factor 10a (unknown origin)
Prothrombin = Prothrombin (Homo sapiens, UniProt P00734); test: Inhibition of thrombin (unknown origin)
Plasma kallikrein = Plasma kallikrein (Homo sapiens, UniProt P03952); test: Inhibition of plasma kallikrein (unknown origin)
Coagulation factor XI [14] = biological target: T1, Coagulation factor XI; test: Inhibition of human coagulation factor 11a at 37 degC

T1 sequence (P03951 19-387 limits assumed): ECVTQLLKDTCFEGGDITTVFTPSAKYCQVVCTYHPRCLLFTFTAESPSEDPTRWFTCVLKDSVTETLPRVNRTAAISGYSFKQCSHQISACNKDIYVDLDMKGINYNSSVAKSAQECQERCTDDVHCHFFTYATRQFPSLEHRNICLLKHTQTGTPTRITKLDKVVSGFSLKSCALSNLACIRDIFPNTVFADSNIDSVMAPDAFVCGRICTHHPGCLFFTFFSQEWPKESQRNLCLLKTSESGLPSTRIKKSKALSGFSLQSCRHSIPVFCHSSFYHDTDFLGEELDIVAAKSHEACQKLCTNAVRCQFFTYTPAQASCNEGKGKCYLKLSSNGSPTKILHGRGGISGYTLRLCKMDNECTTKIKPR
T1 sequence (P03951 388-625 limits assumed): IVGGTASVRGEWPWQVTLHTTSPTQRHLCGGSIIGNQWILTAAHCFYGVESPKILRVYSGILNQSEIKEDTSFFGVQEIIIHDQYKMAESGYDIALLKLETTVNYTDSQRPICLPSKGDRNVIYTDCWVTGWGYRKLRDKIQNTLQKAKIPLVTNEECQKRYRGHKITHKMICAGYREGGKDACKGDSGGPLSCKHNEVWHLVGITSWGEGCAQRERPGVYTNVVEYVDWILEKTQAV
Tissue-type plasminogen activator, sequence (P00750 whole entry): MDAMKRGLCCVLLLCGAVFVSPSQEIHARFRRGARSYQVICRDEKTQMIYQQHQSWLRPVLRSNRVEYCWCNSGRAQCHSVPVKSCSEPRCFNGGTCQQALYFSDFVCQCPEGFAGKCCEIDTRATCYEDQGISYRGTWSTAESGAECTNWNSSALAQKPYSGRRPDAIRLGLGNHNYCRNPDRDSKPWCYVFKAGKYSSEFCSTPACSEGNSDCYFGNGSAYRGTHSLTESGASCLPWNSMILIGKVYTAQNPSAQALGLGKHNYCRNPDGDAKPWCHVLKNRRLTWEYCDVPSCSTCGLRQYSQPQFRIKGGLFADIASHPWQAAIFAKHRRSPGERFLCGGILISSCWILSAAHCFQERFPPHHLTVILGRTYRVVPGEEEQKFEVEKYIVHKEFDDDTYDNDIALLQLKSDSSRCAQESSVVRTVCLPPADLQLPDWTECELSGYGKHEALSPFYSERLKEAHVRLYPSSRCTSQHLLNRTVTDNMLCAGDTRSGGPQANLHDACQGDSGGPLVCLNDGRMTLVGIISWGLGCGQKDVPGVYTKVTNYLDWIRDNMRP
Plasminogen, sequence (P00747 97-580 limits assumed): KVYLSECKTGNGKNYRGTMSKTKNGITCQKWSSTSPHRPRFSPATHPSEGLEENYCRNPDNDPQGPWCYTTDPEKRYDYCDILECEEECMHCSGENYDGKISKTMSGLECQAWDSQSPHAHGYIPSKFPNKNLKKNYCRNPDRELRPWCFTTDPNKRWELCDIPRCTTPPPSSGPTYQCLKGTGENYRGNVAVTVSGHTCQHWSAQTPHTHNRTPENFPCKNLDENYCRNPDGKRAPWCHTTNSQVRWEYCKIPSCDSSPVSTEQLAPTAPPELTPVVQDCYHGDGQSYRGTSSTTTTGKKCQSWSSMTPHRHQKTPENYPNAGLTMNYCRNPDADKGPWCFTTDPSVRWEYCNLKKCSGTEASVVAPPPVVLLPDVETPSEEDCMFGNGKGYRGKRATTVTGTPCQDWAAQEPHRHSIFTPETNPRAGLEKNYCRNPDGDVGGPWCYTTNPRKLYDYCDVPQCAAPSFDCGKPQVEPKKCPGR
Plasminogen, sequence (P00747 581-810 limits assumed): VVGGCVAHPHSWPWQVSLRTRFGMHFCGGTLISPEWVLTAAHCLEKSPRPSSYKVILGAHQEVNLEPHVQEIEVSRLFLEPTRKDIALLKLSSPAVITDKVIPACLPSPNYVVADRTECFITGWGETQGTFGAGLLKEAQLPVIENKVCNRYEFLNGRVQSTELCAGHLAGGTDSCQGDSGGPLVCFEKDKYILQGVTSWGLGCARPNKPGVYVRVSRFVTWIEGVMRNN
Kallikrein-1, sequence (P06870 whole entry): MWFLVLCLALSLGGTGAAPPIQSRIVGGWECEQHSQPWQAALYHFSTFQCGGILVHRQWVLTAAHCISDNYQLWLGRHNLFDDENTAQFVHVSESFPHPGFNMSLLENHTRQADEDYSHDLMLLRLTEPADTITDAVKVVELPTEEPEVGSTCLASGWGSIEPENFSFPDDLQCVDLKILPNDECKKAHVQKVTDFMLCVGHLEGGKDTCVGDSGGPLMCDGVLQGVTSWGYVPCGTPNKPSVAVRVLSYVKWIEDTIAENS
Coagulation factor IX, sequence (P00740 47-191 limits assumed): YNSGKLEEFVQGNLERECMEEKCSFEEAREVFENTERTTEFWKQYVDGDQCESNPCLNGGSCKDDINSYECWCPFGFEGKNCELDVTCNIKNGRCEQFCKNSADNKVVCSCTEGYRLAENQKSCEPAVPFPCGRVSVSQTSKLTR
Coagulation factor IX, sequence (P00740 227-461 limits assumed): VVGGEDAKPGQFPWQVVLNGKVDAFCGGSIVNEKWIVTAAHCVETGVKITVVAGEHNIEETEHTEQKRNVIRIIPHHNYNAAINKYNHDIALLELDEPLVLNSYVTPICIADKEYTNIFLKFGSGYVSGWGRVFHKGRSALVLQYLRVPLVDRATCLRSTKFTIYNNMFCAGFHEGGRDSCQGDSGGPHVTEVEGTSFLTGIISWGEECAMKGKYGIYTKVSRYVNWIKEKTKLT
Plasma kallikrein, sequence (P03952 20-390 limits assumed): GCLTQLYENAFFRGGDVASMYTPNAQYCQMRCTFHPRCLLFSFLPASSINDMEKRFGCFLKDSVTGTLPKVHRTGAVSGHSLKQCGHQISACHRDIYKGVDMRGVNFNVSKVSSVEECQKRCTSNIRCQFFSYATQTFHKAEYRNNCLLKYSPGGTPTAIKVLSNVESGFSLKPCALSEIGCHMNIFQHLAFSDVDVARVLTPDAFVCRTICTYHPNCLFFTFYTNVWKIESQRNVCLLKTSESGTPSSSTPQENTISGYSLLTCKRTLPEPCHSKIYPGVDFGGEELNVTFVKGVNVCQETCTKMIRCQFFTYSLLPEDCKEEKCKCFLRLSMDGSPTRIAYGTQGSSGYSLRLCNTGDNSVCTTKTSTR
Plasma kallikrein, sequence (P03952 391-638 limits assumed): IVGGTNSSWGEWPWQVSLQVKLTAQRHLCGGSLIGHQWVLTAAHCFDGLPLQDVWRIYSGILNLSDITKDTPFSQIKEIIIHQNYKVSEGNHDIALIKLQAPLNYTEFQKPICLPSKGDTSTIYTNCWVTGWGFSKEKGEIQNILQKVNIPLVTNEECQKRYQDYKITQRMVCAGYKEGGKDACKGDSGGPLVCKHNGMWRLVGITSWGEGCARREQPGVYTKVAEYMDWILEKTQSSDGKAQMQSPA
Coagulation factor X, sequence (P00742 41-179 limits assumed): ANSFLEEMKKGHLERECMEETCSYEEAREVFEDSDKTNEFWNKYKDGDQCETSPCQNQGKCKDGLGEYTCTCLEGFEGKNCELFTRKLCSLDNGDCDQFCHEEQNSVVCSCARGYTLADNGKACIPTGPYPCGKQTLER
Coagulation factor X, sequence (P00742 235-488 limits assumed): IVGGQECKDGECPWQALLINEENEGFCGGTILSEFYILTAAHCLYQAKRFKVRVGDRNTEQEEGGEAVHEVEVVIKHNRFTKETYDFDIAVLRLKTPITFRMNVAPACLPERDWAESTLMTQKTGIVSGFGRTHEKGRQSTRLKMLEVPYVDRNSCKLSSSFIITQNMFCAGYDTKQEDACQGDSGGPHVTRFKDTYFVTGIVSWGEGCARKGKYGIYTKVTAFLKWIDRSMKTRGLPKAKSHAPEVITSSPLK

| SMILES | Ki (Coagulation factor XI [3]) | Ki (Trypsin) | clearance [9] | Vd [10] | half-life [11] | also measured |
| --- | --- | --- | --- | --- | --- | --- |
| NC[C@H]1CC[C@H](C(=O)N[C@@H](Cc2ccccc2)c2nc(-c3ccc4c(N)n[nH]c4c3)c(Cl)[nH]2)CC1 | 0.00031 µM |  |  |  |  | Ki (Kallikrein-1): 0.65 µM; Ki [1]: > 20.8 µM; Ki (Plasminogen): 8.4 µM; Ki [2]: > 22 µM; Papp [4]: 0.03 ×10⁻⁶ cm/s; clearance [5]: 11.2 mL/min/kg; Vd [6]: 0.92 L/kg; half-life [7]: 1.88 h; bioavailability [8]: 3.6% |
| NCC12CCC(C(=O)N[C@@H](Cc3ccccc3)c3nc(-c4ccc5c(N)n[nH]c5c4)c(Cl)[nH]3)(CC1)CC2 | 0.00149 µM | 1.04 µM |  |  |  |  |
| NCc1ccc(C(=O)N[C@@H](Cc2ccccc2)c2nc(-c3ccc4c(N)n[nH]c4c3)c(Cl)[nH]2)cc1 | 0.00116 µM | 0.059 µM |  |  |  |  |
| NCc1ccc(C(=O)N[C@@H](Cc2ccccc2)c2nc(-c3ccc4c(N)n[nH]c4c3)c(Cl)[nH]2)c(F)c1 | 0.00103 µM | 0.058 µM |  |  |  |  |
| Nc1nccc2cc(C(=O)N[C@@H](Cc3ccccc3)c3nc(-c4ccc5c(N)n[nH]c5c4)c(Cl)[nH]3)ccc12 | 0.019 µM | 0.38 µM | 49.5 mL/min/kg | 1 L/kg | 0.14 h | Papp [4]: 3.8 ×10⁻⁶ cm/s; bioavailability [12]: < 2% |
| Nc1n[nH]c2cc(C(=O)N[C@@H](Cc3ccccc3)c3nc(-c4ccc5c(N)n[nH]c5c4)c(Cl)[nH]3)ccc12 | 0.058 µM | 1.4 µM |  |  |  |  |
| Nc1n[nH]c2cc(-c3nc([C@H](Cc4ccccc4)NC(=O)c4ccc5c(N)noc5c4)[nH]c3Cl)ccc12 | 0.125 µM | > 5 µM |  |  |  |  |
| Nc1n[nH]c2cc(-c3nc([C@H](Cc4ccccc4)NC(=O)[C@H]4CC[C@H](C(N)=O)CC4)[nH]c3Cl)ccc12 | 2.9 µM | > 5 µM |  |  |  |  |
| C[C@H]1CC[C@H](C(=O)N[C@@H](Cc2ccccc2)c2nc(-c3ccc4c(N)n[nH]c4c3)c(Cl)[nH]2)CC1 | 0.068 µM | > 6 µM | 15.4 mL/min/kg | 0.9 L/kg | 1.5 h | Papp [4]: 0.46 ×10⁻⁶ cm/s; bioavailability [12]: < 1% |
| NC(=O)c1ccc(C(=O)N[C@@H](Cc2ccccc2)c2nc(-c3ccc4c(N)n[nH]c4c3)c(Cl)[nH]2)cc1 | 0.31 µM | > 5 µM | 12.5 mL/min/kg | 1.5 L/kg | 1.4 h | bioavailability [12]: 26% |
| Cc1ccc(C(=O)N[C@@H](Cc2ccccc2)c2nc(-c3ccc4c(N)n[nH]c4c3)c(Cl)[nH]2)cc1 | 0.39 µM | > 5 µM |  |  |  |  |
| Cc1ccc(C(=O)N[C@@H](Cc2ccccc2)c2nc(-c3ccc4c(N)n[nH]c4c3)c(Cl)[nH]2)c(F)c1 | 0.2 µM | > 5 µM | 9 mL/min/kg | 1.9 L/kg | 1.8 h | Papp [4]: 54.7 ×10⁻⁶ cm/s; bioavailability [12]: 30% |
| COc1ccc(C(=O)N[C@@H](Cc2ccccc2)c2nc(-c3ccc4c(N)n[nH]c4c3)c(Cl)[nH]2)c(F)c1 | 0.28 µM | > 6 µM |  |  |  |  |
| COc1cc(F)c(C(=O)N[C@@H](Cc2ccccc2)c2nc(-c3ccc4c(N)n[nH]c4c3)c(Cl)[nH]2)c(F)c1 | 0.065 µM | > 6 µM | 15.2 mL/min/kg | 1.3 L/kg | 1.2 h | Papp [4]: 23.4 ×10⁻⁶ cm/s; bioavailability [12]: 49% |
| Nc1n[nH]c2cc(-c3nc([C@H](Cc4ccccc4)NC(=O)c4cc(Cl)ccc4F)[nH]c3Cl)ccc12 | 0.53 µM | > 5 µM |  |  |  |  |
| Nc1n[nH]c2cc(-c3nc([C@H](Cc4ccccc4)NC(=O)NCc4cccc(Cl)c4)[nH]c3Cl)ccc12 | 0.054 µM |  |  |  |  |  |
| Nc1n[nH]c2cc(-c3nc([C@H](Cc4ccccc4)NC(=O)NCc4cc(Cl)ccc4F)[nH]c3Cl)ccc12 | 0.031 µM |  |  |  |  |  |
| Cc1ccc(Cl)cc1CNC(=O)N[C@@H](Cc1ccccc1)c1nc(-c2ccc3c(N)n[nH]c3c2)c(Cl)[nH]1 | 0.053 µM |  |  |  |  |  |

| SMILES | Ki (Coagulation factor XI [3]) | Ki (Trypsin) | clearance [9] | Vd [10] | half-life [11] | also measured |
| --- | --- | --- | --- | --- | --- | --- |
| Nc1n[nH]c2cc(-c3nc([C@H](Cc4ccccc4)NC(=O)NCc4cc(Cl)ccc4C(F)(F)F)[nH]c3Cl)ccc12 | 0.24 µM |  |  |  |  |  |
| COc1ccc(Cl)cc1CNC(=O)N[C@@H](Cc1ccccc1)c1nc(-c2ccc3c(N)n[nH]c3c2)c(Cl)[nH]1 | 0.075 µM |  |  |  |  |  |
| Nc1n[nH]c2cc(-c3nc([C@H](Cc4ccccc4)NC(=O)NCc4cccc(Cl)c4F)[nH]c3Cl)ccc12 | 0.057 µM |  |  |  |  |  |
| Nc1n[nH]c2cc(-c3nc([C@H](Cc4ccccc4)NC(=O)NCc4c(F)ccc(Cl)c4F)[nH]c3Cl)ccc12 | 0.023 µM |  |  |  |  |  |
| NCc1ccc(Cl)cc1CNC(=O)N[C@@H](Cc1ccccc1)c1nc(-c2ccc3c(N)n[nH]c3c2)c(Cl)[nH]1 | 0.0058 µM |  |  |  |  | Activity (Plasma): 3.9 µM |
| Nc1n[nH]c2cc(-c3nc([C@H](Cc4ccccc4)NC(=O)NCc4cc(Cl)ccc4-n4cnnn4)[nH]c3Cl)ccc12 | 0.0015 µM |  | 31.2 mL/min/kg | 1.4 L/kg | 2.1 h | bioavailability [12]: 0%; Activity (Plasma): 1.8 µM; half-life [13]: < 0.0167 h |
| Nc1n[nH]c2cc(-c3nc([C@H](Cc4ccccc4)NC(=O)NCc4cc(Cl)ccc4-n4cccn4)[nH]c3Cl)ccc12 | 0.45 µM |  |  |  |  | half-life [13]: < 0.0167 h |
| Nc1n[nH]c2cc(-c3nc([C@H](Cc4ccccc4)NC(=O)NCc4cc(Cl)ccc4-n4cncn4)[nH]c3Cl)ccc12 | 0.046 µM |  |  |  |  | Activity (Plasma): 34 µM; half-life [13]: < 0.0167 h |
| COC(=O)Nc1ccc(-c2nc([C@H](Cc3ccccc3)NC(=O)NCc3cc(Cl)ccc3-n3cnnn3)[nH]c2Cl)cc1 | 0.0034 µM |  | 34.5 mL/min/kg | 2.8 L/kg | 2.8 h | Activity (Plasma): 5.6 µM; half-life [13]: < 0.0167 h |
| COC(=O)Nc1ccc(-c2nc([C@H](Cc3ccccc3)NC(=O)CCc3cc(Cl)ccc3-n3cnnn3)[nH]c2Cl)cc1 | 0.0019 µM |  | 38.3 mL/min/kg | 4.4 L/kg | 2.6 h | Activity (Plasma): 5.2 µM |
| COC(=O)Nc1ccc(-c2nc([C@H](Cc3ccccc3)NC(=O)/C=C/c3cc(Cl)ccc3-n3cnnn3)[nH]c2Cl)cc1 | 0.0027 µM |  | 9 mL/min/kg | 1.6 L/kg | 3.1 h | bioavailability [12]: 3%; Activity (Plasma): 5.3 µM; half-life [13]: 0.55 h |
| COC(=O)Nc1ccc(-c2c[nH]c([C@H](Cc3ccccc3)NC(=O)/C=C/c3cc(Cl)ccc3-n3cnnn3)n2)cc1 | 0.0067 µM | > 6.2 µM |  | 3.4 L/kg | 2.4 h | Ki (Coagulation factor VII): > 13 µM; Ki (Coagulation factor IX): > 60 µM; Ki (Coagulation factor X): 1.5 µM; Ki (Prothrombin): > 15 µM; Ki (Plasma kallikrein): 0.24 µM; Ki (Kallikrein-1): > 30 µM; Ki [1]: 1.3 µM; Ki (Plasminogen): > 41 µM; Ki [2]: 17 µM; bioavailability [12]: 10.4%; Activity (Plasma): 8.6 µM |
| Nc1n[nH]c2cc(-c3c[nH]c([C@H](Cc4ccccc4)NC(=O)/C=C/c4cc(Cl)ccc4-n4cnnn4)n3)ccc12 |  |  |  |  |  | Activity (Plasma): 4 µM; Ki (Coagulation factor XI [14]): 0.005 µM |
| Nc1n[nH]c2cc(-c3nc([C@H](Cc4ccccc4)NC(=O)/C=C/c4cc(Cl)ccc4-n4cnnn4)[nH]c3Cl)ccc12 | 0.0012 µM | > 6.2 µM | 16 mL/min/kg | 0.8 L/kg | 2.2 h | Ki (Coagulation factor VII): > 13 µM; Ki (Coagulation factor IX): > 35 µM; Ki (Coagulation factor X): > 1 µM; Ki (Prothrombin): > 13 µM; Ki (Plasma kallikrein): 0.041 µM; Ki (Kallikrein-1): 1.2 µM; Ki [1]: 0.66 µM; Ki (Plasminogen): > 24 µM; Ki [2]: 19 µM; bioavailability [12]: 0%; Activity (Plasma): 3 µM |
| Nc1nccc2c1CCC(C(=O)N[C@@H](Cc1ccccc1)c1nc(-c3ccc4c(N)n[nH]c4c3)c(Cl)[nH]1)C2 (single isomer, unassigned; diastereomer A) | 0.0026 µM | 2.8 µM | 34.8 mL/min/kg | 2.8 L/kg | 2.3 h | Papp [4]: 0.15 ×10⁻⁶ cm/s; bioavailability [12]: < 2% |
| Nc1nccc2c1CCC(C(=O)N[C@@H](Cc1ccccc1)c1nc(-c3ccc4c(N)n[nH]c4c3)c(Cl)[nH]1)C2 (single isomer, unassigned; diastereomer B) | 0.0025 µM | 0.36 µM |  |  |  |  |
| Nc1nccc2c1CCC(C(=O)N[C@@H](Cc1ccccc1)c1nc(-c3ccc4c(N)n[nH]c4c3)c(Cl)[nH]1)C2 (stereo in doubt; 6) | 0.00215 µM | 1.43 µM |  |  |  |  |
